Measured values as given in PubChem BioAssay AID2060905 (Molecular Pharmacology Branch, DTP, NCI, 2025).

Tested on: 282377-053-R-J1-PDC complex spheroid viability
Experiment: Anticancer human tumor 282377-053-R-J1-PDC patient-derived colon adenocarcinoma cell line growth inhibition [RAS]
Conditions: for IC50: curve of first compound; for viability, T/C: stronger effect = lower value
Outline: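 Multi-cell-type spheroids: tumor cells plus HUVEC endothelial cells and mesenchymal stem cells. RAS-pathway inhibitors were combined with targeted agents, each dosed in half-log steps down from clinical Cmax, or from 10 microM when Cmax was unknown.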

[1] = second compound 0.000949 µM, first compound 0.0316 µM
[2] = second compound 0.000949 µM, first compound 0.1 µM
[3] = second compound 0.000949 µM, first compound 0.316 µM
[4] = second compound 0.000949 µM, first compound 1 µM
[5] = second compound 0.000949 µM, first compound 3.16 µM
[6] = second compound 0.000949 µM, first compound 10 µM
[7] = second compound 0.003 µM, first compound 0.0316 µM
[8] = second compound 0.003 µM, first compound 0.1 µM
[9] = second compound 0.003 µM, first compound 0.316 µM
[10] = second compound 0.003 µM, first compound 1 µM
[11] = second compound 0.003 µM, first compound 3.16 µM
[12] = second compound 0.003 µM, first compound 10 µM
[13] = second compound 0.00949 µM, first compound 0.0316 µM
[14] = second compound 0.00949 µM, first compound 0.1 µM
[15] = second compound 0.00949 µM, first compound 0.316 µM
[16] = second compound 0.00949 µM, first compound 1 µM
[17] = second compound 0.00949 µM, first compound 3.16 µM
[18] = second compound 0.00949 µM, first compound 10 µM
[19] = second compound 0.03 µM, first compound 0.0316 µM
[20] = second compound 0.03 µM, first compound 0.1 µM
[21] = second compound 0.03 µM, first compound 0.316 µM
[22] = second compound 0.03 µM, first compound 1 µM
[23] = second compound 0.03 µM, first compound 3.16 µM
[24] = second compound 0.03 µM, first compound 10 µM
[25] = second compound 0.0949 µM, first compound 0.0316 µM
[26] = second compound 0.0949 µM, first compound 0.1 µM
[27] = second compound 0.0949 µM, first compound 0.316 µM
[28] = second compound 0.0949 µM, first compound 1 µM
[29] = second compound 0.0949 µM, first compound 3.16 µM
[30] = second compound 0.0949 µM, first compound 10 µM
[31] = second compound 0.3 µM, first compound 0.0316 µM
[32] = second compound 0.3 µM, first compound 0.1 µM
[33] = second compound 0.3 µM, first compound 0.316 µM
[34] = second compound 0.3 µM, first compound 1 µM
[35] = second compound 0.3 µM, first compound 3.16 µM
[36] = second compound 0.3 µM, first compound 10 µM
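Note: spheroids exposed to agents for seven days before readout.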
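Throughout, for viability, T/C: luminescence viability as percent of DMSO vehicle control wells.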

How did the IC50 (second compound 0.000949 µM) turn out when `Cc1nc(N2CCC3(CC2)COC(C)C3N)c(CO)nc1Sc1ccnc(N)c1Cl` (stereo unspecified) + CCn1c(-c2cc(N3CCN(C)CC3)cnc2C(C)OC)c2c3cc(ccc31)-c1csc(n1)CC(NC(=O)C1CC1C)C(=O)N1CCCC(N1)C(=O)OCC(C)(C)C2 was run?
Its IC50 is greater than 10 µM.

And the IC50 (second compound 0.003 µM)?
Its IC50 is greater than 10 µM.

And the IC50 (second compound 0.00949 µM)?
The IC50 was greater than 10 µM.

And the IC50 (second compound 0.03 µM)?
Its IC50 is greater than 10 µM.

What about the IC50 (second compound 0.0949 µM) of the same compound?
The IC50 was greater than 10 µM.

What about the IC50 (second compound 0.3 µM) of the same compound?
Its IC50 is greater than 10 µM.

What about the viability, T/C [1] of the same compound?
Its viability, T/C is 88.7%.

What about the viability, T/C [2] of the same compound?
Its viability, T/C is 92.8%.

And the viability, T/C [3]?
The viability, T/C was 89.5%.

And the viability, T/C [4]?
Its viability, T/C is 87.7%.

And the viability, T/C [5]?
The viability, T/C was 76.8%.

And the viability, T/C [6]?
Its viability, T/C is 96.8%.

What about the viability, T/C [7] of the same compound?
The viability, T/C was 80.6%.

What about the viability, T/C [8] of the same compound?
Its viability, T/C is 94.4%.

And the viability, T/C [9]?
Its viability, T/C is 78.7%.

What about the viability, T/C [10] of the same compound?
Its viability, T/C is 80.5%.

And the viability, T/C [11]?
The viability, T/C was 94.8%.

And the viability, T/C [12]?
The viability, T/C was 96.5%.

What about the viability, T/C [13] of the same compound?
The viability, T/C was 82.7%.

And the viability, T/C [14]?
Its viability, T/C is 64.8%.

What about the viability, T/C [15] of the same compound?
Its viability, T/C is 74.6%.

What about the viability, T/C [16] of the same compound?
The viability, T/C was 105%.

And the viability, T/C [17]?
Its viability, T/C is 74.5%.

And the viability, T/C [18]?
Its viability, T/C is 94%.

And the viability, T/C [19]?
The viability, T/C was 80.6%.

And the viability, T/C [20]?
Its viability, T/C is 82.2%.

What about the viability, T/C [21] of the same compound?
The viability, T/C was 90.1%.

What about the viability, T/C [22] of the same compound?
Its viability, T/C is 85.3%.

And the viability, T/C [23]?
The viability, T/C was 88%.

What about the viability, T/C [24] of the same compound?
Its viability, T/C is 91.1%.

And the viability, T/C [25]?
The viability, T/C was 69.7%.

What about the viability, T/C [26] of the same compound?
The viability, T/C was 93.5%.

What about the viability, T/C [27] of the same compound?
Its viability, T/C is 88.9%.

What about the viability, T/C [28] of the same compound?
The viability, T/C was 78.6%.

And the viability, T/C [29]?
The viability, T/C was 95.5%.

What about the viability, T/C [30] of the same compound?
The viability, T/C was 93.8%.

What about the viability, T/C [31] of the same compound?
Its viability, T/C is 80.5%.

What about the viability, T/C [32] of the same compound?
The viability, T/C was 88.8%.

What about the viability, T/C [33] of the same compound?
The viability, T/C was 91.1%.

What about the viability, T/C [34] of the same compound?
The viability, T/C was 105%.

What about the viability, T/C [35] of the same compound?
Its viability, T/C is 112%.

What about the viability, T/C [36] of the same compound?
The viability, T/C was 89.8%.

Which results are given for `NC1c2ccccc2OC12CCN(c1cnc3c(N4CCCc5ncccc54)n[nH]c3n1)CC2` (stereo unspecified) + CCn1c(-c2cc(N3CCN(C)CC3)cnc2C(C)OC)c2c3cc(ccc31)-c1csc(n1)CC(NC(=O)C1CC1C)C(=O)N1CCCC(N1)C(=O)OCC(C)(C)C2?
IC50 (second compound 0.000949 µM): > 10 µM; IC50 (second compound 0.003 µM): > 10 µM; IC50 (second compound 0.00949 µM): > 10 µM; IC50 (second compound 0.03 µM): > 10 µM; IC50 (second compound 0.0949 µM): > 10 µM; IC50 (second compound 0.3 µM): > 10 µM; viability, T/C [1]: 96.6%; viability, T/C [2]: 102%; viability, T/C [3]: 87.7%; viability, T/C [4]: 99.9%; viability, T/C [5]: 106%; viability, T/C [6]: 140%; viability, T/C [7]: 97.4%; viability, T/C [8]: 102%; viability, T/C [9]: 96.3%; viability, T/C [10]: 99%; viability, T/C [11]: 93.7%; viability, T/C [12]: 98.6%; viability, T/C [13]: 135%; viability, T/C [14]: 96.2%; viability, T/C [15]: 111%; viability, T/C [16]: 90.8%; viability, T/C [17]: 100%; viability, T/C [18]: 107%; viability, T/C [19]: 115%; viability, T/C [20]: 109%; viability, T/C [21]: 101%; viability, T/C [22]: 123%; viability, T/C [23]: 122%; viability, T/C [24]: 97%; viability, T/C [25]: 108%; viability, T/C [26]: 118%; viability, T/C [27]: 100%; viability, T/C [28]: 107%; viability, T/C [29]: 111%; viability, T/C [30]: 112%; viability, T/C [31]: 126%; viability, T/C [32]: 152%; viability, T/C [33]: 105%; viability, T/C [34]: 117%; viability, T/C [35]: 110%; viability, T/C [36]: 106%

`Nc1ccn(C2OC(CO)C(O)C2(F)F)c(=O)n1` (stereo unspecified) + CCn1c(-c2cc(N3CCN(C)CC3)cnc2C(C)OC)c2c3cc(ccc31)-c1csc(n1)CC(NC(=O)C1CC1C)C(=O)N1CCCC(N1)C(=O)OCC(C)(C)C2 was tested. Which IC50 (second compound 0.000949 µM) did it give?
The IC50 was greater than 1 µM.

And the IC50 (second compound 0.003 µM)?
Its IC50 is greater than 1 µM.

And the IC50 (second compound 0.00949 µM)?
The IC50 was greater than 1 µM.

And the IC50 (second compound 0.03 µM)?
The IC50 was greater than 1 µM.

And the IC50 (second compound 0.0949 µM)?
Its IC50 is greater than 1 µM.

And the IC50 (second compound 0.3 µM)?
Its IC50 is greater than 1 µM.

What about the viability, T/C (second compound 0.000949 µM, first compound 0.00316 µM) of the same compound?
Its viability, T/C is 107%.

What about the viability, T/C (second compound 0.000949 µM, first compound 0.01 µM) of the same compound?
Its viability, T/C is 95.1%.

And the viability, T/C [1]?
The viability, T/C was 120%.

What about the viability, T/C [2] of the same compound?
Its viability, T/C is 107%.

What about the viability, T/C [3] of the same compound?
Its viability, T/C is 101%.

And the viability, T/C [4]?
The viability, T/C was 66.8%.

And the viability, T/C (second compound 0.003 µM, first compound 0.00316 µM)?
Its viability, T/C is 90%.

What about the viability, T/C (second compound 0.003 µM, first compound 0.01 µM) of the same compound?
The viability, T/C was 110%.

And the viability, T/C [7]?
Its viability, T/C is 106%.

And the viability, T/C [8]?
The viability, T/C was 111%.

And the viability, T/C [9]?
The viability, T/C was 93.8%.

What about the viability, T/C [10] of the same compound?
Its viability, T/C is 64.6%.

What about the viability, T/C (second compound 0.00949 µM, first compound 0.00316 µM) of the same compound?
The viability, T/C was 116%.

What about the viability, T/C (second compound 0.00949 µM, first compound 0.01 µM) of the same compound?
Its viability, T/C is 95.9%.

What about the viability, T/C [13] of the same compound?
The viability, T/C was 129%.

What about the viability, T/C [14] of the same compound?
Its viability, T/C is 107%.

And the viability, T/C [15]?
The viability, T/C was 96.4%.

What about the viability, T/C [16] of the same compound?
Its viability, T/C is 69%.

And the viability, T/C (second compound 0.03 µM, first compound 0.00316 µM)?
Its viability, T/C is 104%.

And the viability, T/C (second compound 0.03 µM, first compound 0.01 µM)?
Its viability, T/C is 100%.

And the viability, T/C [19]?
Its viability, T/C is 108%.

What about the viability, T/C [20] of the same compound?
The viability, T/C was 115%.

And the viability, T/C [21]?
The viability, T/C was 86.7%.

And the viability, T/C [22]?
The viability, T/C was 71.5%.

What about the viability, T/C (second compound 0.0949 µM, first compound 0.00316 µM) of the same compound?
Its viability, T/C is 104%.

What about the viability, T/C (second compound 0.0949 µM, first compound 0.01 µM) of the same compound?
Its viability, T/C is 95.2%.

And the viability, T/C [25]?
Its viability, T/C is 100%.

What about the viability, T/C [26] of the same compound?
The viability, T/C was 106%.

And the viability, T/C [27]?
The viability, T/C was 123%.

What about the viability, T/C [28] of the same compound?
Its viability, T/C is 72.5%.

What about the viability, T/C (second compound 0.3 µM, first compound 0.00316 µM) of the same compound?
Its viability, T/C is 120%.

And the viability, T/C (second compound 0.3 µM, first compound 0.01 µM)?
Its viability, T/C is 94.2%.

And the viability, T/C [31]?
Its viability, T/C is 129%.

What about the viability, T/C [32] of the same compound?
Its viability, T/C is 131%.

And the viability, T/C [33]?
The viability, T/C was 118%.

What about the viability, T/C [34] of the same compound?
Its viability, T/C is 108%.
